Results on one compound are retold here after PMC5218480 (PLoS ONE, 2017).

The test system of this test is MV-4-11 cells. As to the kind of experiment: Gene expression microarray analysis (Affymetrix PrimeView) and GSEA. Further details: RFU PODN (11730768_x_at) / Fold change /veh PODN (11730768_x_at) / RFU LINC00158 (11744669_a_at) / Fold change /veh LINC00158 (11744669_a_at) / RFU DUSP10 (11751237_a_at) / Fold change /veh DUSP10 (11751237_a_at) / RFU ID3 (11757404_x_at) / Fold change /veh ID3 (11757404_x_at) / RFU PLEKHG5 (11737974_s_at) / Fold change /veh PLEKHG5 (11737974_s_at) / RFU LRRC4B (11730491_at) / Fold change /veh LRRC4B (11730491_at) / RFU GIMAP4 (11747438_a_at) / Fold change /veh GIMAP4 (11747438_a_at) / RFU KRT8 (11758183_x_at) / Fold change /veh KRT8 (11758183_x_at) / RFU CNN1 (11734310_a_at) / Fold change /veh CNN1 (11734310_a_at) / RFU VPS37D (11726825_at) / Fold change /veh VPS37D (11726825_at) / RFU C10orf10 (11716522_x_at) / Fold change /veh C10orf10 (11716522_x_at) / RFU KIR2DL2 /// KIR2DL4 /// KIR2DL5A /// KIR2DL5B /// KIR2DS1 /// KIR2DS2 /// KIR2DS3 /// KIR2DS4 /// KIR3DL3 /// KIR3DL3 /// KIR3DS1 (11738374_at) / Fold change /veh KIR2DL2 /// KIR2DL4 /// KIR2DL5A /// KIR2DL5B /// KIR2DS1 /// KIR2DS2 /// KIR2DS3 /// KIR2DS4 /// KIR3DL3 /// KIR3DL3 /// KIR3DS1 (11738374_at) / RFU C1QL1 (11718748_at) / Fold change /veh C1QL1 (11718748_at) / RFU TMPRSS4 (11747572_a_at) / Fold change /veh TMPRSS4 (11747572_a_at) / RFU HAMP (11756126_x_at) / Fold change /veh HAMP (11756126_x_at) / RFU RNFT2 (11725882_a_at) / Fold change /veh RNFT2 (11725882_a_at) / RFU NR4A2 (11747474_a_at) / Fold change /veh NR4A2 (11747474_a_at) / RFU ABCC12 (11746883_a_at) / Fold change /veh ABCC12 (11746883_a_at) / RFU TMEM136 (11760407_x_at) / Fold change /veh TMEM136 (11760407_x_at) / RFU CLDN22 /// WWC2 (11732394_at) / Fold change /veh CLDN22 /// WWC2 (11732394_at) / RFU HLA-DPB1 (11760878_x_at) / Fold change /veh HLA-DPB1 (11760878_x_at) / RFU SPINT1 (11716480_a_at) / Fold change /veh SPINT1 (11716480_a_at) / RFU GAP43 (11754022_s_at) / Fold change /veh GAP43 (11754022_s_at) / RFU A4GNT (11735810_at) / Fold change /veh A4GNT (11735810_at) / RFU PRB3 (11715151_x_at) / Fold change /veh PRB3 (11715151_x_at) / RFU TUBB4B (11761932_at) / Fold change /veh TUBB4B (11761932_at) / RFU CAPN14 (11732068_a_at) / Fold change /veh CAPN14 (11732068_a_at) / RFU TMCC2 (11721928_a_at) / Fold change /veh TMCC2 (11721928_a_at) / RFU IRGQ (11745062_a_at) / Fold change /veh IRGQ (11745062_a_at) / RFU FAM174B (11720279_a_at) / Fold change /veh FAM174B (11720279_a_at) / RFU TMPRSS4 (11748680_a_at) / Fold change /veh TMPRSS4 (11748680_a_at) / RFU FAM212B (11763350_a_at) / Fold change /veh FAM212B (11763350_a_at) / RFU PLEKHG5 (11743358_a_at) / Fold change /veh PLEKHG5 (11743358_a_at) / RFU ZSCAN30 (11745921_a_at) / Fold change /veh ZSCAN30 (11745921_a_at) / RFU CMKLR1 (11741424_a_at) / Fold change /veh CMKLR1 (11741424_a_at) / RFU LOC101060620 /// MAPK8IP1 (11723275_at) / Fold change /veh LOC101060620 /// MAPK8IP1 (11723275_at) / RFU SPTSSB (11747773_x_at) / Fold change /veh SPTSSB (11747773_x_at) / RFU PRSS12 (11739890_at) / Fold change /veh PRSS12 (11739890_at) / RFU BIN1 (11741810_x_at) / Fold change /veh BIN1 (11741810_x_at) / RFU WNT11 (11732464_a_at) / Fold change /veh WNT11 (11732464_a_at) / RFU C10orf10 (11716521_a_at) / Fold change /veh C10orf10 (11716521_a_at) / RFU C5orf56 (11738089_at) / Fold change /veh C5orf56 (11738089_at) / RFU CYB561 (11721691_x_at) / Fold change /veh CYB561 (11721691_x_at) / RFU ANKRD19P (11752326_a_at) / Fold change /veh ANKRD19P (11752326_a_at) / RFU OR2T12 /// OR2T33 /// OR2T8 (11738714_s_at) / Fold change /veh OR2T12 /// OR2T33 /// OR2T8 (11738714_s_at) / RFU VCAN (11748164_a_at) / Fold change /veh VCAN (11748164_a_at) / RFU JSRP1 (11732532_at) / Fold change /veh JSRP1 (11732532_at) / RFU KRTAP10-11 (11738290_x_at) / Fold change /veh KRTAP10-11 (11738290_x_at) / RFU MYO3A (11730013_a_at) / Fold change /veh MYO3A (11730013_a_at) / RFU EBF3 (11725865_a_at) / Fold change /veh EBF3 (11725865_a_at) / RFU CAMK2N1 (11719241_x_at) / Fold change /veh CAMK2N1 (11719241_x_at) / RFU C5orf56 (11738088_a_at) / Fold change /veh C5orf56 (11738088_a_at) / RFU OLFML3 (11715873_a_at) / Fold change /veh OLFML3 (11715873_a_at) / RFU LOC100653217 /// NTM (11731650_a_at) / Fold change /veh LOC100653217 /// NTM (11731650_a_at) / RFU MAPK11 (11762145_a_at) / Fold change /veh MAPK11 (11762145_a_at) / RFU FIZ1 (11724087_x_at) / Fold change /veh FIZ1 (11724087_x_at) / RFU OASL (11726364_x_at) / Fold change /veh OASL (11726364_x_at) / RFU SOX15 (11748057_x_at) / Fold change /veh SOX15 (11748057_x_at) / RFU CD79A (11719716_a_at) / Fold change /veh CD79A (11719716_a_at) / RFU HIST1H1D (11736915_at) / Fold change /veh HIST1H1D (11736915_at) / RFU CASKIN2 (11723855_a_at) / Fold change /veh CASKIN2 (11723855_a_at) / RFU LOC730098 (11760151_x_at) / Fold change /veh LOC730098 (11760151_x_at) / RFU OR4N2 (11742367_at) / Fold change /veh OR4N2 (11742367_at) / RFU PRRT2 (11749266_a_at) / Fold change /veh PRRT2 (11749266_a_at) / RFU SNX32 (11753110_a_at) / Fold change /veh SNX32 (11753110_a_at) / RFU CDHR5 (11726645_a_at) / Fold change /veh CDHR5 (11726645_a_at) / RFU RCAN1 (11760418_a_at) / Fold change /veh RCAN1 (11760418_a_at) / RFU FAM167A (11723789_a_at) / Fold change /veh FAM167A (11723789_a_at) / RFU FAM26E (11764081_at) / Fold change /veh FAM26E (11764081_at) / RFU ISYNA1 (11749810_s_at) / Fold change /veh ISYNA1 (11749810_s_at) / RFU ACY1 (11761880_at) / Fold change /veh ACY1 (11761880_at) / RFU 11764098_at / Fold change /veh 11764098_at / RFU SAMD14 (11745864_x_at) / Fold change /veh SAMD14 (11745864_x_at) / RFU NPB (11741838_a_at) / Fold change /veh NPB (11741838_a_at) / RFU TMPRSS6 (11731388_a_at) / Fold change /veh TMPRSS6 (11731388_a_at) / RFU KRTAP10-2 (11738614_at) / Fold change /veh KRTAP10-2 (11738614_at) / RFU ARHGAP8 /// PRR5-ARHGAP8 (11727945_x_at) / Fold change /veh ARHGAP8 /// PRR5-ARHGAP8 (11727945_x_at) / RFU KRTAP5-7 /// NADSYN1 (11734609_at) / Fold change /veh KRTAP5-7 /// NADSYN1 (11734609_at) / RFU RASL12 (11751679_a_at) / Fold change /veh RASL12 (11751679_a_at) / RFU CDKN2B (11736163_a_at) / Fold change /veh CDKN2B (11736163_a_at) / RFU PRF1 (11729649_at) / Fold change /veh PRF1 (11729649_at) / RFU, ZNF638 /// ZNF638-IT1 / Fold change vs veh, ZNF638 /// ZNF638-IT1 / RFU, PANK3 / Fold change vs veh, PANK3 / RFU, SH3YL1 / Fold change vs veh, SH3YL1 / RFU, ZEB2 / Fold change vs veh, ZEB2 / RFU, NRIP1 / Fold change vs veh, NRIP1 / RFU, PTTG1IP / Fold change vs veh, PTTG1IP / RFU, CAPN2 / Fold change vs veh, CAPN2 / RFU, MED14 / Fold change vs veh, MED14 / RFU, SNORA58 / Fold change vs veh, SNORA58 / RFU, C1orf63 / Fold change vs veh, C1orf63 / RFU, LRRFIP1 / Fold change vs veh, LRRFIP1 / RFU, NDUFAF7 / Fold change vs veh, NDUFAF7 / RFU, SLC12A2 / Fold change vs veh, SLC12A2 / RFU, IBTK / Fold change vs veh, IBTK / RFU, ESF1 / Fold change vs veh, ESF1 / Fold change vs veh, TMEM50B / RFU, TAOK1 / Fold change vs veh, TAOK1 / RFU, ACBD3 / Fold change vs veh, ACBD3 / RFU, TMA16 / Fold change vs veh, TMA16 / RFU, RWDD3 / Fold change vs veh, RWDD3 / RFU, BCAT1 / Fold change vs veh, BCAT1 / RFU, EDEM3 / Fold change vs veh, EDEM3 / RFU, TMEM33 / Fold change vs veh, TMEM33 / RFU, WDR75 / Fold change vs veh, WDR75 / RFU, AHCTF1 / Fold change vs veh, AHCTF1 / RFU, TFRC / Fold change vs veh, TFRC / RFU, ZDHHC17 / Fold change vs veh, ZDHHC17 / RFU, NOM1 / Fold change vs veh, NOM1 / RFU, ARL8B / Fold change vs veh, ARL8B / RFU, ZBTB11 / Fold change vs veh, ZBTB11 / RFU, TAMM41 / Fold change vs veh, TAMM41 / RFU, KIAA1704 /// LOC100996395 / Fold change vs veh, KIAA1704 /// LOC100996395 / RFU, ING1 / Fold change vs veh, ING1 / RFU, TRMT61B / Fold change vs veh, TRMT61B / RFU, FUBP3 / Fold change vs veh, FUBP3 / RFU, TP53 / Fold change vs veh, TP53 / RFU, TNKS2 / Fold change vs veh, TNKS2 / RFU, ZFP14 / Fold change vs veh, ZFP14 / RFU, ACTR2 / Fold change vs veh, ACTR2 / RFU, PPP3R1 / Fold change vs veh, PPP3R1 / RFU, PIK3R1 / Fold change vs veh, PIK3R1 / RFU, HNRNPA1 / Fold change vs veh, HNRNPA1 / RFU, RNF170 / Fold change vs veh, RNF170 / RFU, ZNF28 / Fold change vs veh, ZNF28 / RFU, RNGTT / Fold change vs veh, RNGTT / RFU, OGT / Fold change vs veh, OGT / RFU, BRD1 / Fold change vs veh, BRD1 / RFU, MARS / Fold change vs veh, MARS / RFU, ZNF655 / Fold change vs veh, ZNF655 / RFU, FAHD1 / Fold change vs veh, FAHD1 / RFU, BDP1 / Fold change vs veh, BDP1 / RFU, LRRCC1 / Fold change vs veh, LRRCC1 / RFU, ARID1A / Fold change vs veh, ARID1A / RFU, ZNF146 / Fold change vs veh, ZNF146 / RFU, ZNF330 / Fold change vs veh, ZNF330 / RFU, GPN3 / Fold change vs veh, GPN3 / RFU, C9orf123 / Fold change vs veh, C9orf123 / RFU, N4BP2L2 / Fold change vs veh, N4BP2L2 / RFU, ARFIP1 / Fold change vs veh, ARFIP1 / RFU, FAM179B / Fold change vs veh, FAM179B / RFU, BCL10 / Fold change vs veh, BCL10 / RFU, UHRF1BP1L / Fold change vs veh, UHRF1BP1L / RFU, BET1 / Fold change vs veh, BET1 / RFU, CNOT2 / Fold change vs veh, CNOT2 / RFU, ZNF268 / Fold change vs veh, ZNF268 / Fold change vs veh, ZNF507 / RFU, DGCR2 / Fold change vs veh, DGCR2 / RFU, WDSUB1 / Fold change vs veh, WDSUB1 / Fold change vs veh, HSP90B1 /// MIR3652 / RFU, ADSS / Fold change vs veh, ADSS / RFU, GK / Fold change vs veh, GK / RFU, ZNF148 / Fold change vs veh, ZNF148 / RFU, TAF9 / Fold change vs veh, TAF9 / RFU, SLC1A5 / Fold change vs veh, SLC1A5 / RFU, SLMO2 / Fold change vs veh, SLMO2 / RFU, ABCC4 / Fold change vs veh, ABCC4 / RFU, LOC101060439 /// RAP1B / Fold change vs veh, LOC101060439 /// RAP1B / RFU, RFX7 / Fold change vs veh, RFX7 / RFU, GTPBP10 / Fold change vs veh, GTPBP10 / RFU, CNEP1R1 / Fold change vs veh, CNEP1R1 / RFU, BIVM-ERCC5 /// ERCC5 / Fold change vs veh, BIVM-ERCC5 /// ERCC5 / RFU, ILF3 / Fold change vs veh, ILF3 / RFU 11762660_at / Fold change /veh 11762660_at / RFU VCAN (11757783_s_at) / Fold change /veh VCAN (11757783_s_at) / RFU DDX43 (11728927_at) / Fold change /veh DDX43 (11728927_at) / RFU KRT8 (11758188_x_at) / Fold change /veh KRT8 (11758188_x_at) / RFU NKD1 (11759106_at) / Fold change /veh NKD1 (11759106_at) / RFU SRD5A1 (11742802_a_at) / Fold change /veh SRD5A1 (11742802_a_at) / RFU TPSAB1 /// TPSB2 (11721975_s_at) / Fold change /veh TPSAB1 /// TPSB2 (11721975_s_at) / RFU GSTM3 (11746129_a_at) / Fold change /veh GSTM3 (11746129_a_at) / RFU IL23R (11737362_x_at) / Fold change /veh IL23R (11737362_x_at) / RFU TMEM51 (11727254_a_at) / Fold change /veh TMEM51 (11727254_a_at) / RFU PIWIL2 (11732686_x_at) / Fold change /veh PIWIL2 (11732686_x_at) / RFU ORM1 (11744905_x_at) / Fold change /veh ORM1 (11744905_x_at) / RFU CCDC152 (11743942_at) / Fold change /veh CCDC152 (11743942_at) / RFU ECM1 (11717891_a_at) / Fold change /veh ECM1 (11717891_a_at) / RFU IL23R (11748794_a_at) / Fold change /veh IL23R (11748794_a_at) / RFU TNFAIP8L3 (11732012_x_at) / Fold change /veh TNFAIP8L3 (11732012_x_at) / RFU MBOAT4 (11741988_at) / Fold change /veh MBOAT4 (11741988_at) / RFU 11764193_at / Fold change /veh 11764193_at / RFU TMEM53 (11763286_at) / Fold change /veh TMEM53 (11763286_at) / RFU MAGEB2 (11727129_at) / Fold change /veh MAGEB2 (11727129_at) / RFU TMEM200A (11744735_a_at) / Fold change /veh TMEM200A (11744735_a_at) / RFU CCDC152 (11751479_a_at) / Fold change /veh CCDC152 (11751479_a_at) / RFU FAM211A (11726209_a_at) / Fold change /veh FAM211A (11726209_a_at) / RFU RGS16 (11746705_a_at) / Fold change /veh RGS16 (11746705_a_at) / RFU VCAN (11755009_s_at) / Fold change /veh VCAN (11755009_s_at) / RFU RHOB (11743442_s_at) / Fold change /veh RHOB (11743442_s_at) / RFU RGS16 (11720943_a_at) / Fold change /veh RGS16 (11720943_a_at) / RFU RGS16 (11720944_at) / Fold change /veh RGS16 (11720944_at) / RFU, VPS4B / Fold change vs veh, VPS4B / RFU, CREB1 / Fold change vs veh, CREB1 / RFU, DNAJC13 / Fold change vs veh, DNAJC13 / RFU, GNAQ / Fold change vs veh, GNAQ / RFU, CDK5R1 / Fold change vs veh, CDK5R1 / RFU, ZRANB3 / Fold change vs veh, ZRANB3 / RFU, CUL4A / Fold change vs veh, CUL4A / RFU, CCNY / Fold change vs veh, CCNY / RFU, UFL1 / Fold change vs veh, UFL1 / RFU, COG3 / Fold change vs veh, COG3 / RFU, DIAPH2 / Fold change vs veh, DIAPH2 / RFU, SKA2 / Fold change vs veh, SKA2 / RFU, AFF3 / Fold change vs veh, AFF3 / RFU, LMF1 / Fold change vs veh, LMF1 / RFU, IPO11 / Fold change vs veh, IPO11 / RFU, DFFB / Fold change vs veh, DFFB / RFU, FOXP1 / Fold change vs veh, FOXP1 / RFU, CARD8 / Fold change vs veh, CARD8 / RFU, STRN3 / Fold change vs veh, STRN3 / RFU, ADK / Fold change vs veh, ADK / RFU, RASSF2 / Fold change vs veh, RASSF2 / RFU, WIPF1 / Fold change vs veh, WIPF1 / RFU, LARP1B / Fold change vs veh, LARP1B / RFU, RASA1 / Fold change vs veh, RASA1 / RFU, RB1 / Fold change vs veh, RB1 / RFU, PPFIA1 / Fold change vs veh, PPFIA1 / RFU, MAT2A / Fold change vs veh, MAT2A / RFU, CCT5 / Fold change vs veh, CCT5 / RFU, WDR92 / Fold change vs veh, WDR92 / RFU, CUX1 / Fold change vs veh, CUX1 / RFU, TTC7A / Fold change vs veh, TTC7A / RFU, TMEM135 / Fold change vs veh, TMEM135 / RFU, DEPTOR / Fold change vs veh, DEPTOR / RFU, CPM / Fold change vs veh, CPM / RFU, DNAJB6 / Fold change vs veh, DNAJB6 / RFU, CACNA2D3 / Fold change vs veh, CACNA2D3 / RFU, DTX4 / Fold change vs veh, DTX4 / RFU, TFCP2 / Fold change vs veh, TFCP2 / RFU, GMCL1 /// GMCL1P1 / Fold change vs veh, GMCL1 /// GMCL1P1 / RFU, AEBP2 / Fold change vs veh, AEBP2 / RFU, SNHG1 /// SNORD22 /// SNORD25 /// SNORD26 /// SNORD27 /// SNORD28 /// SNORD29 /// SNORD31 / Fold change vs veh, SNHG1 /// SNORD22 /// SNORD25 /// SNORD26 /// SNORD27 /// SNORD28 /// SNORD29 /// SNORD31 / Fold change (Aza/veh), C12orf56 (ProbeSet 11735607_a_at) / Fold change (ACY-1035/veh), C12orf56 (ProbeSet 11735607_a_at) / Fold change (Aza/veh), FGFR1OP (ProbeSet 11751329_s_at) / Fold change (ACY-1035/veh), FGFR1OP (ProbeSet 11751329_s_at) / Fold change (Aza/veh), VPS36 (ProbeSet 11739960_a_at) / Fold change (ACY-1035/veh), VPS36 (ProbeSet 11739960_a_at) / RFU SYPL1 (11715823_x_at) / Fold change /veh SYPL1 (11715823_x_at) / RFU IGFBP7 (11715501_s_at) / Fold change /veh IGFBP7 (11715501_s_at) / RFU REEP3 (11722064_at) / Fold change /veh REEP3 (11722064_at) / RFU IGLL1 (11728026_x_at) / Fold change /veh IGLL1 (11728026_x_at): dose or concentration left out as unconfirmed. As to conditions: MV-4-11 cells, 48 hours. In kind it is cell-based, human.

As to `Nc1ccc(-c2cccs2)cc1NC(=O)c1ccc2c(c1)cc(C1CC1)n2CCN1CCOCC1` [ACY-1035], the “RFU C5orf56 (11738088_a_at)” value was 66.78 RFU.
